Like-named read-outs stand apart in the source and are kept apart here.
Target: T1, recombinant human Syk (GST-hSyk fusion protein) (Homo sapiens, UniProt P43405)
T1 construct: purchased Carna Biosciences 08-176
Assay: Homogeneous Time-Resolved Fluorescence (HTRF) assay for the recombinant human Syk enzyme
Assay type: biochemical
Conditions: 10-dose titration, 25 μM ATP
In short: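 GST-hSyk (5 pM) preincubated 10 min with compound (0.1% DMSO) in 15 mM Tris-HCl pH 7.5, 2 mM DTT; reaction started with 250 nM biotinylated peptide, 5 mM Mg, 25 μM ATP, 45 min, room temperature. EDTA quench, Eu-anti-phosphotyrosine/SA-APC HTRF read after 30 min; IC50 from 10-dose titration (10 μM–0.508 nM), four-parameter fit.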

[1] = IC50 class, read-out: rhSYK Activity

IC50 [1]	IC50 (read-out: rhSYK IC50)	SMILES
≤ 100 nM		Cc1cc(Nc2nccc(C(F)(F)F)n2)cc(-c2cnn(C[C@H](O)C(=O)O)c2)n1 [Example 11.18, (2S)-2-hydroxy-3-[4-(6-methyl-4-{[4-(trifluoro-methyl)pyrimidin-2-yl]amino}pyridin-2-yl)-1H-pyrazol-1-yl]propanoic acid]
100 to 1000 nM		Cc1ccnc(Nc2cc(C)nc(-c3cnn(C[C@@H](O)C(=O)O)c3)n2)c1 [Example 11.19, (2R)-2-hydroxy-3-(4-{4-methyl-6-[(4-methyl-pyridin-2-yl)amino]-pyrimidin-2-yl}-1H-pyrazol-1-yl)propanoic acid]
≤ 100 nM		Cc1cc(Nc2nccc(C(F)(F)F)n2)cc(-c2cnn(C[C@@H](O)C(=O)O)c2)n1 [Example 11.20, (2R)-2-hydroxy-3-[4-(6-methyl-4-{[4-(trifluoro-methyl)pyrimidin-2-yl]amino}pyridin-2-yl)-1H-pyrazol-1-yl]propanoic acid]
100 to 1000 nM	110 nM	Cc1cc(Nc2nccc(C(F)(F)F)n2)cc(-c2cnn(CC3(O)CCNCC3)c2)c1 [Example 12.1, 4-((4-(3-methyl-5-((4-(trifluoromethyl)pyrimidin-2-yl)amino)phenyl)-1H-pyrazol-1-yl)methyl)piperidin-4-ol]
≤ 100 nM		Cc1cc(Nc2nccc(C(F)(F)F)n2)cc(-c2cnn(CC3(O)CCC3)c2)c1 [Example 12.2, 1-{[4-(3-methyl-5-{[4-(trifluoro-methyl)pyrimidin-2-yl]amino}-phenyl)-1H-pyrazol-1-yl]-methyl}-cyclobutanol]
≤ 100 nM		COC1CC(O)(Cn2cc(-c3cc(C)cc(Nc4nccc(C)n4)c3)cn2)C1 (centres unmarked) [Example 12.3, 3-methoxy-1-[(4-{3-methyl-5-[(4-methylpyrimidin-2-yl)amino]phenyl}-1H-pyrazol-1-yl)methyl]-cyclobutanol]
100 to 1000 nM		Cc1cc(Nc2nccc(C(F)(F)F)n2)cc(-c2cnn(CC3(O)CCN(CC(=O)OC(C)(C)C)CC3)c2)c1 [Example 12.4, tert-butyl (4-hydroxy-4-{[4-(3-methyl-5-{[4-(trifluoro-methyl)pyrimidin-2-yl]amino}phenyl)-1H-pyrazol-1-yl]methyl}-piperidin-1-yl)acetate]
≤ 100 nM		Cc1cc(Nc2nccc(C(F)(F)F)n2)cc(-c2cnn(CC3(O)CCOCC3)c2)c1 [Example 12.5, 4-{[4-(3-methyl-5-{[4-(trifluoromethyl)pyrimidin-2-yl]amino}phenyl)-1H-pyrazol-1-yl]methyl}-tetrahydro-2H-pyran-4-ol]
≤ 100 nM		Cc1cc(Nc2nccc(C(F)(F)F)n2)cc(-c2cnn(CC3(O)CCC(C(=O)O)C(C)(C)C3)c2)c1 (centres unmarked) [Example 12.6, 4-hydroxy-2,2-dimethyl-4-{[4-(3-methyl-5-{[4-(trifluoromethyl)pyrimidin-2-yl]amino}phenyl)-1H-pyrazol-1-yl]methyl}-cyclohexanecarboxylic acid]
≤ 100 nM		Cc1cc(Nc2nccc(C(F)(F)F)n2)cc(-c2cnn(CC3(O)CCCOC3)c2)c1 (centres unmarked) [Example 12.7, 3-{[4-(3-methyl-5-{[4-(trifluoromethyl)pyrimidin-2-yl]amino}phenyl)-1H-pyrazol-1-yl]methyl}-tetrahydro-2H-pyran-3-ol]
≤ 100 nM		Cc1cc(Nc2nccc(C(F)(F)F)n2)cc(-c2cnn(C[C@@]3(O)C[C@@H](C)O[C@@H](C)C3)c2)c1 [Example 12.8, meso (2R,4S,6S)-2,6-dimethyl-4-{[4-(3-methyl-5-{[4-(trifluoro-methyl)pyrimidin-2-yl]amino}phenyl)-1H-pyrazol-1-yl]methyl}-tetrahydro-2H-pyran-4-ol]
≤ 100 nM		Cc1cc(Nc2nccc(C(F)(F)F)n2)cc(-c2cnn(CC3(O)CCOC(C)(C)C3)c2)c1 (centres unmarked) [Example 12.9, 2,2-dimethyl-4-{[4-(3-methyl-5-{[4-(trifluoro-methyl)pyrimidin-2-yl]amino}phenyl)-1H-pyrazol-1-yl]methyl}-tetrahydro-2H-pyran-4-ol]
≤ 100 nM		Cc1cc(Nc2nccc(C(F)(F)F)n2)cc(-c2cnn(CC3(O)CCOC(C)(C)C3)c2)c1 (centres unmarked) [Example 12.10, 2,2-dimethyl-4-{[4-(3-methyl-5-{[4-(trifluoro-methyl)pyrimidin-2-yl]amino}phenyl)-1H-pyrazol-1-yl]methyl}-tetrahydro-2H-pyran-4-ol]
≤ 100 nM		Cc1cc(Nc2nccc(C(F)(F)F)n2)cc(-c2cnn(CC3(O)CCCOC3)c2)c1 (centres unmarked) [Example 12.11, 3-{[4-(3-methyl-5-{[4-(trifluoromethyl)pyrimidin-2-yl]amino}phenyl)-1H-pyrazol-1-yl]methyl}-tetrahydro-2H-pyran-3-ol]
≤ 100 nM		Cc1cc(Nc2nccc(C(F)(F)F)n2)cc(-c2cnn(CC3COCCC3O)c2)c1 (centres unmarked) [Example 12.12, 3-{[4-(3-methyl-5-{[4-(trifluoromethyl)pyrimi-din-2-yl]amino}phenyl)-1H-pyrazol-1-yl]methyl}-tetrahydro-2H-pyran-4-ol]
100 to 1000 nM		Cc1cc(Nc2nccc(C)n2)cc(-c2cnn(CC3(O)CCOCC3)c2)c1 [Example 12.13, 4-[(4-{3-methyl-5-[(4-methylpyrimidin-2-yl)amino]phenyl}-1H-pyrazol-1-yl)methyl]-tetrahydro-2H-pyran-4-ol]

IC50 [1]	IC50 (read-out: rhSYK IC50)	SMILES
≤ 100 nM		Cc1cc(Nc2nccc(C(F)(F)F)n2)cc(-c2cnn(C(C)C3(O)CCOCC3)c2)c1 (centres unmarked) [Example 12.14, 4-{1-[4-(3-methyl-5-{[4-(trifluoromethyl)pyrimidin-2-yl]amino}phenyl)-1H-pyrazol-1-yl]ethyl}-tetrahydro-2H-pyran-4-ol]
≤ 100 nM		Cc1cc(Nc2nccc(C(F)(F)F)n2)cc(-c2cnn(CC3(O)CCN(CC(=O)O)CC3)c2)c1 [Example 12.15, (4-hydroxy-4-{[4-(3-methyl-5-{[4-(trifluoromethyl)-pyrimidin-2-yl]amino}-phenyl)-1H-pyrazol-1-yl]methyl}piperidin-1-yl)acetic acid]
≤ 100 nM	10.7 nM	Cc1cc(Nc2nccc(C(F)(F)F)n2)cc(-c2cnn(C(C)C)c2)c1 [Example 13.1, N-(3-(1-isopropyl-1H-pyrazol-4-yl)-5-methylphenyl)-4-(trifluoromethyl)-pyrimidin-2-amine]
≤ 100 nM		Cc1cc(Nc2nccc(C(F)(F)F)n2)cc(-c2cnn(CCC3CCCN3)c2)c1 (centres unmarked) [Example 13.2, N-{3-methyl-5-[1-(2-pyrrolidin-2-ylethyl)-1H-pyrazol-4-yl]phenyl}-4-(trifluoro-methyl)-pyrimidin-2-amine]
≤ 100 nM		Cc1cc(Nc2nccc(C(F)(F)F)n2)cc(-c2cnn(CC3CCCO3)c2)c1 (centres unmarked) [Example 13.3, N-{3-methyl-5-[1-(tetra-hydrofuran-2-ylmethyl)-1H-pyrazol-4-yl]phenyl}-4-(trifluoro-methyl)-pyrimidin-2-amine]
≤ 100 nM	5.9 nM	Cc1cc(Nc2nccc(C(F)(F)F)n2)cc(-c2cnn([C@H]3CC[C@@H](O)CC3)c2)c1 [Example 15, cis-4-[4-(3-methyl-5-{[4-(trifluoromethyl)pyrimidin-2-yl]amino}phenyl)-1H-pyrazol-1-yl]cyclohexanol]
≤ 100 nM	2.7 nM	Cc1cc(Nc2nccc(C(F)F)n2)cc(-c2cnn(C[C@H](O)C(N)=O)c2)c1 [Example 16, (2S)-3-[4-(3-{[4-(difluoromethyl)pyrimidin-2-yl]amino}-5-methylphenyl)-1H-pyrazol-1-yl]-2-hydroxypropanamide]
≤ 100 nM	13.9 nM	Cc1cc(Nc2nccc(C(F)(F)F)n2)cc(-c2cnn(CC3(O)CCN(C(N)=O)CC3)c2)c1 [Example 17, 4-hydroxy-4-((4-(3-methyl-5-((4-(trifluoromethyl)pyrimidin-2-yl)amino)phenyl)-1H-pyrazol-1-yl)methyl)piperidine-1-carboxamide]
≤ 100 nM		O=C(O)CCc1cnn(-c2cccc(Nc3cc(C(F)(F)F)ccn3)n2)c1 [Example 18.1, 3-(1-(6-((4-(trifluoromethyl)pyridin-2-yl)amino)pyridin-2-yl)-1H-pyrazol-4-yl)propanoic acid]
100 to 1000 nM		Cc1ccnc(Nc2cccc(-n3cc(CCC(=O)O)cn3)n2)c1 [Example 18.2, 3-(1-{6-[(4-methylpyridin-2-yl)amino]pyridin-2-yl}-1H-pyrazol-4-yl)propanoic acid]
≤ 100 nM		Cc1cc(Nc2cc(C3CC3)ccn2)nc(-n2cc(CCC(=O)O)cn2)c1 [Example 18.3, 3-(1-{6-[(4-cyclopropylpyridin-2-yl)amino]-4-methylpyridin-2-yl}-1H-pyrazol-4-yl)propanoic acid]
100 to 1000 nM		Cc1cc(Nc2cc(C)c(Cl)cn2)nc(-n2cc(CCC(=O)O)cn2)c1 [Example 18.4, 3-(1-{6-[(5-chloro-4-methylpyridin-2-yl)amino]-4-methylpyridin-2-yl}-1H-pyrazol-4-yl)propanoic acid]
≤ 100 nM	61 nM	Cc1cc(Nc2nccc(C(F)(F)F)n2)cc(-n2cc(CCC(=O)O)cn2)c1 [Example 19.1, 3-(1-(3-methyl-5-((4-(trifluoromethyl)pyrimidin-2-yl)amino)phenyl)-1H-pyrazol-4-yl)propanoic acid]
100 to 1000 nM		CCOC(=O)CCc1cnn(-c2cc(C)cc(Nc3nccc(C(F)(F)F)n3)c2)c1 [Example 19.2, Ethyl 3-[1-(3-methyl-5-{[4-(trifluoromethyl)-pyrimidin-2-yl]amino}phenyl)-1H-pyrazol-4-yl]propanoate]
≤ 100 nM		Cc1cc(Nc2nccc(C3CC3)n2)cc(-n2cc(CCC(=O)O)cn2)c1 [Example 19.3, 3-(1-{3-[(4-cyclopropylpyrimidin-2-yl)amino]-5-methylphenyl}-1H-pyrazol-4-yl)propanoic acid]
100 to 1000 nM		CCOC(=O)CCc1cnn(-c2cc(C)cc(Nc3nccc(C4CC4)n3)c2)c1 [Example 19.4, Ethyl 3-(1-{3-[(4-cyclopropylpyrimidin-2-yl)amino]-5-methylphenyl}-1H-pyrazol-4-yl)propanoate]

From patent US9242984B2, “Pyrazolyl derivatives as Syk inhibitors” (Merck Sharp & Dohme Corp., priority 2012, dated 2016)
